The nature of data set [1]: Solid-state stability of crystalline Form II on standing. The settings on record: after 1 month standing at 60° C. Type of data set: physicochemical. As to the method: The amlodipine free base can be of any form including crystalline form I, crystalline form II or amorphous. […] This form corresponds to the material described by […] and Deasy. […] Although it is possible to convert Form II into Form I by applying sufficiently high temperatures, generally over 100 C., Form II is generally stable at ambient conditions and even at moderately elevated temperatures. For instance, the Form II is stable after 1 month standing at 60° C. Accordingly, Form II is thus useful in manufacturing of pharmaceutical final forms. The amlodipine free base in the tablet of the present invention can be of a single type or can be a mixture. For example, a mixture of crystalline Forms I and II.

Data set [2] is described as follows: Stickiness comparison (average punch residue of tablets). Type of data set: physicochemical. The settings on record: tablets with microcrystalline cellulose and calcium sulphate dihydrate, 20 mm punch, 400 mg tablet, slope over runs of 50-300 tablets. As to the method:
An amlodpine free base tablet according to the present invention is preferably a low punch residue tablet. A “low punch residue” as used herein means that the average amount of amlodipine left on a tablet punch is not more than 1 μg/cm^2 per tablet based on a 20 mm round flat punch with a compression force of 15 kilo-newtons. Preferably, the tablet has an average punch residue of 0.7 μg/cm^2 per tablet, more preferably 0.6 μg/cm^2 per tablet. The amount of amlodipine residue can be measured by the process described in EP 244 944. In general the method involves washing the punch after runs of 50, 100, 150, 200, 250 and 300 tablets, using methanol and an ultrasonic bath. The amount of amlodipine in the samples is measured by uv and the total amount of amlodipine extracted from both the upper and lower punch is plotted against the amount of tablets made. An average value for amlodipine residue (stickiness) is calculated from the slope of the regression line by forcing the y-intercept of the line through zero.
After 50 tablets, the tablet material was extracted from the punches using methanol and an ultrasonic bath. […] The extracts together with Amlodipine calibration samples were measured spectrometrically. […] An average value for stickiness was calculated from the slope of the regression line by forcing the y-intercept of the line through zero.

The conditions of data set [3]: solid amlodipine free base; Int. J. of Pharmaceutics 133, 71-83 (1996); cited from earlier work.

SMILES strings stand for the structures. ≈ marks a conversion by molar mass, not a printed value.

`CCOC(=O)C1=C(COCCN)NC(C)=C(C(=O)OC)C1c1ccccc1Cl` (stereo not shown) [Form II]: in data set [1], the “stability of crystalline form” value is on record as “stable”.
`CCOC(=O)C1=C(COCCN)NC(C)=C(C(=O)OC)C1c1ccccc1Cl` (stereo not shown) [amlodipine besylate]: the “Average residue (stickiness)” value in data set [2] came out at 1.16 μg ADP.cm^−2.tablet^−1.
On to `CCOC(=O)C1=C(COCCN)NC(C)=C(C(=O)OC)C1c1ccccc1Cl` (stereo not shown) [amlodipine free base, 2-[(2-aminoethoxy)methyl]-4-(2-chlorophenyl)-3-ethoxycarbonyl-5-methoxycarbonyl-6-methyl-1,4-dihydropyridine], for which, in data set [3], the aqueous solubility is 77.4 µg/mL (≈ 189 µM). Further, the “Average residue (stickiness)” value in data set [2] (listed as Amlodipine base) stood at 0.55 μg ADP.cm^−2.tablet^−1.

For orientation: aqueous solubility means the dissolved amount per volume that the medium holds.

Source of the values: patent US7335380B2 (Synthon IP Inc., priority 2000, dated 2008).
